Where “and” joins values, the source holds several entries; their conditions need not be identical. Identical values can stand only once. Entries after “also recorded” stand apart in the source; their conditions may differ.
What was measured:
[1] = target: T1, PXR/MED1 (Homo sapiens, UniProt O75469); assay: Mammalian two-hybrid PXR/coactivator MED1 recruitment, HepG2; assay type: cell-based; parameters: key: firefly/Metridia luciferase activity ratio (normalized)
T1 construct: PXR-LBD (residues 108–434); expressed in transfected cells; host or cells: HepG2
Protocol: The GAL4-dependent pGL4-G5, harboring a pentamer of GAL4 binding sites in front of the E1b promoter was described before.
Transient batch transfection of HepG2 cells was done as described above. […] All transfections included 0.01 µg pMetLuc2control per well for normalization of firefly luciferase reporter activities. After overnight incubation with the transfection mixtures, cells were treated with chemicals in a volume of 100 µl of cell culture medium. […] Firefly luciferase activity was measured in 10 µl of cell lysates, and Metridia luciferase activity was analyzed in 10 µl of medium supernatant, both as described before. Results were normalized by dividing firefly luciferase activity by Metridia luciferase activity measured from the same well. Measurements of samples were repeated several times (n ≥ 3).

[2] = test system: humanized PXR-CAR-CYP3A4/3A7 mice; assay: Hepatic induction study in humanized PXR-CAR-CYP3A4/3A7 mice (i.p.); assay type: in vivo, mouse
Text: In the induction experiments, […] was sampled from the gallbladder.

[3] = test system: humanized PXR-CAR-CYP3A4/3A7 mice, liver; assay: UHPSFC/MS liver lipidomics (HFD study); assay type: in vivo, mouse
Protocol: Solvents, additives, lipid class internal standards, liver sample preparation, and UHPSFC/MS measurement are described in detail in Supplementary, Chapter 19. Lipid separation using UHPSFC (Acquity UPC^2 instrument from Waters; Milford, MA, USA) was performed on column Viridis BEH (100 × 3 mm, 1.7 µm) with the following conditions: the column temperature 60 °C, the flow rate 1.9 mL/min, and the injection volume 1 µL. The following linear gradient was performed using scCO2 and methanol (30 mM ammonium acetate + 1% of water) used as a modifier: 0 min – 1% modifier, 1.5 min – 16% modifier, 4 min – 51% modifier, 7 min – 51% modifier, 7.51 min – 1% modifier, and the equilibration with the total run time of 8 min. The automatic back-pressure regulator (ABPR) was set to 1800 psi and the autosampler temperature to 4 °C. Methanol with 30 mM ammonium acetate and 1% of water was used as the make-up solvent with a flow rate of 0.25 mL/min. The SFC was connected with the hybrid quadrupole - time of flight (QTOF) mass spectrometer Synapt G2-Si (Waters; Milford, MA, USA) with following conditions: sensitivity mode applying positive ESI mode, the mass range of m/z 150–1200, the capillary voltage of 3 kV, the sampling cone of 20 V, the source offset of 90 V, the source temperature of 150 °C, the desolvation temperature of 500 °C, the cone gas flow of 50 L/h, the desolvation gas flow of 1000 L/h, and the nebulizer gas flow of 4 bar. Mass spectra were acquired in the continuum mode with a scan time of 0.5 s and the peptide leucine enkephalin as the lock mass.
All UHPSFC/MS-QTOF spectra were acquired using MassLynx and processed as follows: noise reduction using the Compression tool followed by the lock mass correction and the conversion from continuum to centroid mode using the MassLynx tool (Accurate mass measure). […] Data were further analyzed using lipidr package. PCA and log2 fold change values were calculated using log2 transformed and Pareto scaled data. […]

[4] = Metabolic stability in mouse liver S9 fraction; details: male, CD-1, mouse
Protocol: Shimadzu HPLC system including vacuum degasser, gradient pumps, reverse phase HPLC column, column oven, and autosampler with an API 4000 QTRAP mass spectrometer (Applied Biosystems/MDS Sciex (AB Sciex) with Turbo V ion source and TurboIonspray interface were used. The reference compound midazolam, which is metabolized both by phase I and phase II enzymes, was used. The elimination constant (kel), half-life (t1/2), and intrinsic clearance (Clint) were determined[19] (Table S1).

[5] = test system: Salmonella typhimurium TA 98, TA 100, TA 1535, TA 1537; Escherichia coli WP2 uvrA; assay: Reverse-mutation Ames test / Bacterial Reverse Mutation Test; details: with and without metabolic activation
Text: The mutagenic activity of MI-883 was detected using the commercially available Muta-ChromoPlate bacterial strain kit (ebpi, Mississauga, Ontario, Canada), which is a 96-well microplate version of the reverse-mutation Salmonella typhimurium Ames test with S9 rat-liver extract. Salmonella typhimurium tester strains TA 98 (detection of frameshift mutagens) and TA 100 (detection of base-exchange mutations) were used as we described before^1.
Consistently, Bacterial Reverse Mutation Test was performed as a service at Research Institute for Organic Syntheses Inc., (Pardubice, Czech Republic) in Salmonella typhimurium strains TA 98, TA 100, TA 1535, TA 1537, and one indicator Escherichia coli WP2 uvrA strains. The report is available after request.

[6] = target: ERα (Homo sapiens, UniProt P03372); assay: Luciferase reporter gene assay ERα, HepG2; assay type: cell-based
Text: (see Supplementary Chapter 7).
Thank you for the insightful question and comment. We have corrected the sentence to read:
Thank you for the idea. Yes, we conducted luciferase reporter assays in antagonistic "mode" for several nuclear receptors using their prototype ligands in the revised manuscript (Figure R7).
This information is included in the Supplementary Information.
Treatment with 5 and 10 µM
(1 picture or pasted object on this page, not shown here) […]
nM dexamethasone, 10 µM GW3965 (LXRα agonist), and 10 µM estradiol. Data are presented as a […]

[7] = target: LXRα (Homo sapiens, UniProt Q13133); assay: Luciferase reporter gene assay LXRα, HepG2
Text: Gal4-LBD constructs of tested nuclear receptors have been used together with pGL4.31[luc2P/GAL4UAS/Hygro] luciferase reporter construct and pRL-TK Renilla expression vector (both from Promega, Hercules, USA) in HepG2 cells transfected with Lipofectamine 2000 or 3000 reagents. For GRα and FXR receptors, full-length expression vectors have been used with pGRE-luc or pFXRE-luc luciferase constructs. For the aryl hydrocarbon receptor (AhR), p1A1-luc construct was used with only pRL-TK vector for transfection normalization. A dual reporter assay (Promega, Hercules, USA) was used to analyze both firefly and Renilla luciferase activities.
Gal4-LBD constructs of tested nuclear receptors have been used together with pGL5-luc luciferase reporter construct and pRL-TK Renilla expression vector in HepG2 cells transfected with Lipofectamine 2000 or 3000 reagents. For GRα and FXR receptors, full-length expression vectors have been used with pGRE-luc or pFXRE-luc luciferase constructs. For the aryl hydrocarbon receptor (AhR), p1A1-luc construct was used with only pRL-TK vector for transfection normalization. […] Bars represent means±S.D. (n=3).

[8] = single agents i.p.: Rif 3×5 mg/kg, CITCO 10 mg/kg two doses, MI-883 10 mg/kg 3 days

ERα, sequence (P03372 311-547 limits assumed, species assumed): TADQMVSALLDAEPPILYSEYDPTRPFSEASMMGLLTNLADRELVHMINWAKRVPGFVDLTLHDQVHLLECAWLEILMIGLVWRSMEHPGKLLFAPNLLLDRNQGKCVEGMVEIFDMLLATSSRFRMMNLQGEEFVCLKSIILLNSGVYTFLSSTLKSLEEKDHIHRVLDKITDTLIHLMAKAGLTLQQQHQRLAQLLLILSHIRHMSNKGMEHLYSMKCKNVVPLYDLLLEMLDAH
T1 sequence (O75469 108-434): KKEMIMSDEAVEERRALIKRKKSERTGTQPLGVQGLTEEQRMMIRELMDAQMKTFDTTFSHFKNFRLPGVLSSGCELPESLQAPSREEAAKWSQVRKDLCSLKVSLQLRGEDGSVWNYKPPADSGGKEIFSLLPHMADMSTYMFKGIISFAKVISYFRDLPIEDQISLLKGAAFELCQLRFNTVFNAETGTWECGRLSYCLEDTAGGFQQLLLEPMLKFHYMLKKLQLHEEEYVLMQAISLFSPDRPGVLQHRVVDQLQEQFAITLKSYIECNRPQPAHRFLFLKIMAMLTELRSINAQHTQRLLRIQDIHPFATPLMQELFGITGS
LXRα, sequence (Q13133 209-447 limits assumed): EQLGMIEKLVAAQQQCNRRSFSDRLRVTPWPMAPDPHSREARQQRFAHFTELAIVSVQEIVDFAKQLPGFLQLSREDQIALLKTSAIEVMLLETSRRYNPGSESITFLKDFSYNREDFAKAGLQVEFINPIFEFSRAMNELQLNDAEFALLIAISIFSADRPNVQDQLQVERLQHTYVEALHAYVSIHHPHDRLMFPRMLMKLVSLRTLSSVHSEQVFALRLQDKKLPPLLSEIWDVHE

Q: What does the source list for `NC(=O)c1cc(Cn2cc(-c3c(-c4ccc(Cl)cc4)nc4cc(F)ccn34)nn2)ccc1Cl` [MI-883, 2-chloro-5-((4-(2-(4-chlorophenyl)-7-fluoroimidazo[1,2-a]pyridin-3-yl)-1H-1,2,3-triazol-1-yl)methyl)benzamide]?
A: PXR/DRIP2025 (MED1) two-hybrid activity, replicates ([1]; MI-883 30 μM): 0.42 and 0.46 and 0.18 and 0.3 and 0.2; PXR/DRIP2025 (MED1) two-hybrid activity, replicates ([1]; single agent: RIF (10 µM), MI-883 10 μM): 0.33 and 0.2 and 0.19 and 0.27 and 0.23; fold mRNA induction CYP3A4 in livers of humanized PXR-CAR-CYP3A mice ([2]; MI-883 10 mg/kg i.p. 3 days, not significant): 1.9 fold; hepatic CYP3A4 mRNA, hPXR/hCAR/CYP3A4/7 mice (Fig. 3e), individual animals ([2]; Rif + MI-883 combination i.p.): 15.1375 and 21.1204 and 7.333 and 13.3527; hepatic Cyp2b10 mRNA, hPXR/hCAR/CYP3A4/7 mice (Fig. 3e), individual animals ([2]; Rif + MI-883 combination i.p.): 37.4609 and 22.8189 and 29.2533 and 22.0407; hepatic CYP3A4 mRNA, hPXR/hCAR/CYP3A4/7 mice (Fig. 3e), individual animals [2, 8]: 2.527 and 2.124 and 1.135; hepatic Cyp2b10 mRNA, hPXR/hCAR/CYP3A4/7 mice (Fig. 3e), individual animals [2, 8]: 5.955 and 3.722 and 12.2143; Cyp2b10 mRNA in the liver, preliminary studies ([2]; single dose of 5 mg/kg in oral gavage): significant induction; cholesteryl esters (CE) in livers, UHPSFC/MS lipidomics [3]: not significantly altered; total and some individual lysophosphatidylcholine (LPC) levels in liver [3]: statistically significant decrease; liver triglycerides with long and highly unsaturated fatty acids (TG 60:12, TG 60:13) ([3]; male mice): significant increase; microsomal CLint ([4]; liver S9 fraction): 3 µL/min/mg; half-life ([4]; s9): 1.87 h; genotoxicity / mutagenicity [5]: not genotoxic; also recorded: nonmutagenic; NRs assays: ERalpha (relative to ctrl, replicates) [6]: 0.77 and 1.06 and 0.79; inhibition of estrogen receptor alpha (ERα), antagonistic mode ([6]; 10 μM MI-883): weak inhibitor; NRs assays: GAL4-LXR+RXR (relative to ctrl, replicates) [7]: 0.88 and 1.89 and 2.24
